Assay results from patent US20120101100A1 (priority 2008, published 2012).

These compounds were tested against S. aureus GyrB ATPase (Staphylococcus aureus, UniProt P0A0K8) (assay: S. aureus (SAU) GyrB ATPase inhibition, malachite green phosphate detection (E. coli GyrA + S. aureus GyrB)). Conditions: 10 compound concentrations; 500 μM ATP.
Chain of S. aureus GyrB ATPase (P0A0K8 whole entry): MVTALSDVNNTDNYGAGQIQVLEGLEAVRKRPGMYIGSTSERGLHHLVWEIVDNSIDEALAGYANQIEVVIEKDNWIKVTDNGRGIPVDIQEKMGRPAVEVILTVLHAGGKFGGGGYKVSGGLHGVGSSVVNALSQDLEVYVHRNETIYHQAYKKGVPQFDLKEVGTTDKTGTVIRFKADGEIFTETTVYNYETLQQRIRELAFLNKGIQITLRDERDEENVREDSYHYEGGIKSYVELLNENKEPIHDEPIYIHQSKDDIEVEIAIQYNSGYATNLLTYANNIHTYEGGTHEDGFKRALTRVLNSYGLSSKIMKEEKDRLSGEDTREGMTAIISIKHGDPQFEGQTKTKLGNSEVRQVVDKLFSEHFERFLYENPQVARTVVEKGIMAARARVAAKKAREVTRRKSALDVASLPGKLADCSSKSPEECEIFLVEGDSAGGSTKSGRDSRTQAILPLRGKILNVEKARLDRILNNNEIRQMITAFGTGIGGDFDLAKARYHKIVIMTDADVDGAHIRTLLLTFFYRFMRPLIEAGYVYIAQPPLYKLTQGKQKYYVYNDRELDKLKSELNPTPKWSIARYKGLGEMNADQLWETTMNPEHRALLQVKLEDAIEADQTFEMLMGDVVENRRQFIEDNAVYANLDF
Chain of S. aureus GyrB ATPase (P0AES4 whole entry, further chain): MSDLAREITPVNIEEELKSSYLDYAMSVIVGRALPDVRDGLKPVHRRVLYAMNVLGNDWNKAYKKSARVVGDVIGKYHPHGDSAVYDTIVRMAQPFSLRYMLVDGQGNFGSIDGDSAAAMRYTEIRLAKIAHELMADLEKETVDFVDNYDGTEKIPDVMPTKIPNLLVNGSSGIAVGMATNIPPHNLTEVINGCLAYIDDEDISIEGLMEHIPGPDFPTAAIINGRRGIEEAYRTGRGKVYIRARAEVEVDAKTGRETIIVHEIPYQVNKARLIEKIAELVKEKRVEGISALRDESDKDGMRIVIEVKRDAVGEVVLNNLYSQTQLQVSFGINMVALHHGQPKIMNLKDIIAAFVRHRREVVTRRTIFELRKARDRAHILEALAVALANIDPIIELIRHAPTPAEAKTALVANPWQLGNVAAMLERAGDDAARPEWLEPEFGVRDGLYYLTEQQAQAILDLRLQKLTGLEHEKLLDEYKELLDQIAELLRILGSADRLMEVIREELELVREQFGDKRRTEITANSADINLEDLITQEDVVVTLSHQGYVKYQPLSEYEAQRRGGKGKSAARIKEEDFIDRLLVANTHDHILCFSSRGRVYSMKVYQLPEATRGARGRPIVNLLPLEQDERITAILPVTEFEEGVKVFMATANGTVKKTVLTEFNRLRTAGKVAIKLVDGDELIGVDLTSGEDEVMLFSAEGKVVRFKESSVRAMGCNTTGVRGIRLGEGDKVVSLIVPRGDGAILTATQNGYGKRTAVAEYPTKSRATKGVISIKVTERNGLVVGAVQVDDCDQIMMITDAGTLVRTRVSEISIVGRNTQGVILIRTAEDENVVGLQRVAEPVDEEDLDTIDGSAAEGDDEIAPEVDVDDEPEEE
Assay type: biochemical
Method: Compounds were tested for inhibition of GyrB ATPase activity using an ammonium molybdate/malachite green-based phosphate detection assay (Lanzetta, P. A., L. J. Alvarez, P. S. Reinach, and O. A. Candia, 1979, 100: 95-97). Assays were performed in multiwell plates in 100 μl reactions containing: 50 mM Hepes buffer pH 7.5, 75 mM ammonium acetate, 8.0 mM magnesium chloride, 1.0 mM ethylenediaminetetraacetic acid, 5% glycerol, 2 mM 1,4-Dithio-DL-threitol, 400 nM bovine serum albumin, 5 μg/ml sheared salmon sperm DNA, 1.25 nM E. coli GyrA, 1.25 nM S. aureus GyrB, 500 μM ATP, and compound in dimethylsulfoxide. Reactions were quenched with 150 μl of ammonium molybdate/malachite green detection reagent containing 1.2 mM malachite green hydrochloride, 8.5 mM ammonium molybdate tetrahydrate, and 1 M hydrochloric acid. Plates were read in an absorbance plate reader at 650 nm and percent inhibition values were calculated using dimethylsulfoxide (2%)-containing reactions as 0% inhibition and novobiocin-containing (2 μM) reactions as 100% inhibition controls. Compound potency was based on IC50 measurements determined from reactions performed in the presence of 10 different compound concentrations.
For “1-Ethyl-3-(5′-(5-oxo-2,5-dihydro-1H-pyrazol-3-yl)-3,3′-bipyridin-6-yl)urea [Example 17]”, the IC50 was 10 nM. In the case of `CCNC(=O)Nc1cc(-c2nc(C(F)(F)F)cs2)c(-c2cncc(-c3ncc[nH]3)c2)cn1` [Example 25, 1-(5′-(1H-Imidazol-2-yl)-4-(4-(trifluoromethyl)thiazol-2-yl)-3,3′-bipyridin-6-yl)-3-ethylurea], the IC50 is reported as 3 nM. `CCNC(=O)Nc1cc(-c2nc(C(F)(F)F)cs2)c(-c2cccc(C#N)n2)cn1` [Example 32, 1-(6-cyano-4′-(4-(trifluoromethyl)thiazol-2-yl)-2,3′-bipyridin-6′-yl)-3-ethylurea] gave an IC50 of 62 nM.

Same assay, conditions: compound concentration of 1.0 μM unless otherwise noted; average value where assay was carried out more than once
With “1-Ethyl-3-(5′-(5-oxo-2,5-dihydro-1H-pyrazol-3-yl)-3,3′-bipyridin-6-yl)urea [Example 17]” the “S. aureus (SAU) GyrB ATPase % Inhibition” value was 102.2%.

Same assay, conditions: compound concentration of 1.0 μM unless otherwise noted; average value where assay was carried out more than once; read-out: S. aureus (SAU) GyrB ATPase % Inhibition
Compound `CCNC(=O)Nc1cc(-c2nc(C(F)(F)F)cs2)c(-c2cncc(-c3nnc(C)o3)c2)cn1` [Example 1, 1-Ethyl-3-(5′-(5-methyl-1,3,4-oxadiazol-2-yl)-4-(4-(trifluoromethyl)thiazol-2-yl)-3,3′-bipyridin-6-yl)urea] has an inhibition at 1 µM of 99%. With `CCNC(=O)Nc1cc(-c2nc(C(F)(F)F)cs2)c(-c2cncc(-c3nnn[nH]3)c2)cn1` [Example 3, 1-(5′-(2H-tetrazol-5-yl)-4-(4-(trifluoromethyl)thiazol-2-yl)-3,3′-bipyridin-6-yl)-3-ethylurea] the inhibition at 1 µM was 88%. `CCNC(=O)Nc1cc(-c2nc(C(F)(F)F)cs2)c(-c2cncc(-c3nnc(C(C)C)o3)c2)cn1` [Example 4] gave an inhibition at 1 µM of 99%. For `CCNC(=O)Nc1cc(-c2nc(C(F)(F)F)cs2)c(-c2cncc(-c3nnc(C(C)C)s3)c2)cn1` [Example 5, 1-Ethyl-3-(5′-(5-isopropyl-1,3,4-thiadiazol-2-yl)-4-(4-(trifluoromethyl)thiazol-2-yl)-3,3′-bipyridin-6-yl)urea], the inhibition at 1 µM was 112%. Compound `CCNC(=O)Nc1cc(-c2nc(C(F)(F)F)cs2)c(-c2cncc(-c3n[nH]c(=O)o3)c2)cn1` [Example 6, 1-ethyl-3-(5′-(5-oxo-4,5-dihydro-1,3,4-oxadiazol-2-yl)-4-(4-(trifluoromethyl)thiazol-2-yl)-3,3′-bipyridin-6-yl)urea] has an inhibition at 1 µM of 106%. With `CCNC(=O)Nc1cc(-c2nc(C(F)(F)F)cs2)c(-c2cncc(-c3nc(C)n[nH]3)c2)cn1` [Example 7, 1-Ethyl-3-(5′-(3-methyl-1H-1,2,4-triazol-5-yl)-4-(4-(trifluoromethyl)thiazol-2-yl)-3,3′-bipyridin-6-yl)urea] the inhibition at 1 µM was 90%. With `CCNC(=O)Nc1cc(-c2nc(C(F)(F)F)cs2)c(-c2cncc(-c3nc(C)no3)c2)cn1` [Example 8] the inhibition at 1 µM was 95%. `CCNC(=O)Nc1cc(-c2nc(C(F)(F)F)cs2)c(-c2ncc(-c3n[nH]c(=O)o3)s2)cn1` [Example 9, 1-ethyl-3-(5-(5-(5-oxo-4,5-dihydro-1,3,4-oxadiazol-2-yl)thiazol-2-yl)-4-(4-(trifluoromethyl)thiazol-2-yl)pyridin-2-yl)urea] gave an inhibition at 1 µM of 106%. In the case of `CCNC(=O)Nc1cc(-c2nc(-c3ccccn3)cs2)c(-c2cncc(-c3n[nH]c(=O)o3)c2)cn1` [Example 10, N-ethyl-N′-[5′-(5-oxo-4,5-dihydro-1,3,4-oxadiazol-2-yl)-4-(4-pyridin-2-yl-1,3-thiazol-2-yl)-3,3′-bipyridin-6-yl]urea], the inhibition at 1 µM is reported as 95%. For `CCNC(=O)Nc1cc(-c2nc(-c3ccccc3)cs2)c(-c2cncc(-c3n[nH]c(=O)o3)c2)cn1` [Example 11, 1-ethyl-3-(5′-(5-oxo-4,5-dihydro-1,3,4-oxadiazol-2-yl)-4-(4-phenylthiazol-2-yl)-3,3′-bipyridin-6-yl)urea], the inhibition at 1 µM was 107%. With `CCNC(=O)Nc1cc(-c2nc3ccccc3s2)c(-c2cncc(-c3n[nH]c(=O)o3)c2)cn1` [Example 12, 1-(4-(benzo[d]thiazol-2-yl)-5′-(5-oxo-4,5-dihydro-1,3,4-oxadiazol-2-yl)-3,3′-bipyridin-6-yl)-3-ethylurea] the inhibition at 1 µM was 108%. In the case of `CCNC(=O)Nc1cc(-c2nc(C(F)(F)F)cs2)c(-c2ccc3nccnc3c2)cn1` [Example 13], the inhibition at 1 µM is reported as 103%. Work on `CCNC(=O)Nc1cc(-c2nc(C(F)(F)F)cs2)c(-c2ccc[n+]([O-])c2)cn1` [Example 15, 6′-(3-Ethylureido)-4′-(4-(trifluoromethyl)thiazol-2-yl)-3,3′-bipyridine 1-oxide] yielded an inhibition at 1 µM of 93%. `CCNC(=O)Nc1cc(-c2nc(C(F)(F)F)cs2)c(-c2nc3c(=O)[nH][nH]c(=O)c3s2)cn1` [Example 16, 1-{5-(4,7-dioxo-4,5,6,7-tetrahydro[1,3]thiazolo[4,5-d]pyridazin-2-yl)-4-[4-(trifluoromethyl)-1,3-thiazol-2-yl]pyridin-2-yl}-3-ethylurea] gave an inhibition at 1 µM of 115%. `CCNC(=O)Nc1cc(-c2nc(C(F)(F)F)cs2)c(-c2cncc(-c3noc(=S)[nH]3)c2)cn1` [Example 18, 1-Ethyl-3-(5′-(5-thioxo-4,5-dihydro-1,2,4-oxadiazol-3-yl)-4-(4-(trifluoromethyl)thiazol-2-yl)-3,3′-bipyridin-6-yl)urea] gave an inhibition at 1 µM of 113%. Work on `CCNC(=O)Nc1cc(-c2nc(C(F)(F)F)cs2)c(-c2cncc(C3=NOS(=O)N3)c2)cn1` (stereo not drawn) [Example 20] yielded an inhibition at 1 µM of 111%. With `CCNC(=O)Nc1cc(-c2nc(C(F)(F)F)cs2)c(-c2cncc(S(C)(=O)=O)c2)cn1` [Example 22, 1-Ethyl-3-(5′-(methylsulfonyl)-4-(4-(trifluoromethyl)thiazol-2-yl)-3,3′-bipyridin-6-yl)urea] the inhibition at 1 µM was 114%. With `CCNC(=O)Nc1cc(-c2nc(C(F)(F)F)cs2)c(-c2cncc(S(N)(=O)=O)c2)cn1` [Example 23, 6′-(3-Ethylureido)-4′-(4-(trifluoromethyl)thiazol-2-yl)-3,3′-bipyridine-5-sulfonamide] the inhibition at 1 µM was 110%. `CCNC(=O)Nc1cc(-c2nc(C(F)(F)F)cs2)c(-c2cncc(-c3cnn(C)c3)c2)cn1` [Example 24, 1-Ethyl-3-(5′-(1-methyl-1H-pyrazol-4-yl)-4-(4-(trifluoromethyl)thiazol-2-yl)-3,3′-bipyridin-6-yl)urea] gave an inhibition at 1 µM of 109%. Compound `CCNC(=O)Nc1cc(-c2nc(C(F)(F)F)cs2)c(-c2cncc(-c3ncc[nH]3)c2)cn1` [Example 25, 1-(5′-(1H-Imidazol-2-yl)-4-(4-(trifluoromethyl)thiazol-2-yl)-3,3′-bipyridin-6-yl)-3-ethylurea] has an inhibition at 1 µM of 100%. With `CCNC(=O)Nc1cc(-c2nc(C(F)(F)F)cs2)c(-c2cncc(C3=NCCO3)c2)cn1` [Example 26, 1-(5′-(4,5-Dihydrooxazol-2-yl)-4-(4-(trifluoromethyl)thiazol-2-yl)-3,3′-bipyridin-6-yl)-3-ethylurea] the inhibition at 1 µM was 105%. `CCNC(=O)Nc1cc(-c2nc(-c3cnn(C)c3)cs2)c(-c2cncc(-c3n[nH]c(=O)o3)c2)cn1` [Example 27, 1-ethyl-3-(4-(4-(1-methyl-1H-pyrazol-4-yl)thiazol-2-yl)-5′-(5-oxo-4,5-dihydro-1,3,4-oxadiazol-2-yl)-3,3′-bipyridin-6-yl)urea] showed an inhibition at 1 µM of 109%. Work on `CCNC(=O)Nc1cc(-c2ccnn2C)c(-c2cncc(-c3n[nH]c(=O)o3)c2)cn1` [Example 28, 1-ethyl-3-(4-(1-methyl-1H-pyrazol-5-yl)-5′-(5-oxo-4,5-dihydro-1,3,4-oxadiazol-2-yl)-3,3′-bipyridin-6-yl)urea] yielded an inhibition at 1 µM of 70%. Work on `CCNC(=O)Nc1cc(-c2nc(C(F)(F)F)cs2)c(-c2cccc(-n3cccn3)n2)cn1` [Example 29] yielded an inhibition at 1 µM of 114%. For `CCNC(=O)Nc1cc(-c2nc(C(F)(F)F)cs2)c(-c2csc(N3CCOCC3)n2)cn1` [Example 30, 1-ethyl-3-(5-(2-morpholinothiazol-4-yl)-4-(4-(trifluoromethyl)thiazol-2-yl)pyridin-2-yl)urea], the inhibition at 1 µM was 105%. Work on `CCNC(=O)Nc1cc(-c2nc(C(F)(F)F)cs2)c(-c2cncc(C#N)n2)cn1` [Example 31, 1-(5-(6-cyanopyrazin-2-yl)-4-(4-(trifluoromethyl)thiazol-2-yl)pyridin-2-yl)-3-ethylurea] yielded an inhibition at 1 µM of 113%. In the case of `CCNC(=O)Nc1cc(-c2nc(C(F)(F)F)cs2)c(-c2cccc(C#N)n2)cn1` [Example 32, 1-(6-cyano-4′-(4-(trifluoromethyl)thiazol-2-yl)-2,3′-bipyridin-6′-yl)-3-ethylurea], the inhibition at 1 µM is reported as 106%. `CCNC(=O)Nc1cc(-c2nc(C(F)(F)F)cs2)c(-c2ccnc(-c3n[nH]c(=O)o3)c2)cn1` [Example 33, 1-ethyl-3-(2′-(5-oxo-4,5-dihydro-1,3,4-oxadiazol-2-yl)-4-(4-(trifluoromethyl)thiazol-2-yl)-3,4′-bipyridin-6-yl)urea] was tested, and the inhibition at 1 µM was 117%. `CCNC(=O)Nc1cc(-c2nc(C(F)(F)F)cs2)c(-c2nc(C)cc(-c3n[nH]c(=O)o3)n2)cn1` [Example 34, 1-ethyl-3-(5-(4-methyl-6-(5-oxo-4,5-dihydro-1,3,4-oxadiazol-2-yl)pyrimidin-2-yl)-4-(4-(trifluoromethyl)thiazol-2-yl)pyridin-2-yl)urea] showed an inhibition at 1 µM of 93%. Work on `CCNC(=O)Nc1cc(-c2nc(C(F)(F)F)cs2)c(-c2cncc(-c3n[nH]c(=O)o3)n2)cn1` [Example 35, 1-ethyl-3-(5-(6-(5-oxo-4,5-dihydro-1,3,4-oxadiazol-2-yl)pyrazin-2-yl)-4-(4-(trifluoromethyl)thiazol-2-yl)pyridin-2-yl)urea] yielded an inhibition at 1 µM of 103%.

Same assay, conditions: read-out: S. aureus (SAU) GyrB ATPase % Inhibition
`CCNC(=O)Nc1cc(-c2nc(C(F)(F)F)cs2)c(-c2cncc(C#N)c2)cn1` [Example 2, 1-(5′-cyano-4-(4-(trifluoromethyl)thiazol-2-yl)-3,3′-bipyridin-6-yl)-3-ethylurea] showed an inhibition at 1 µM of 88%. With `CCNC(=O)Nc1cc(-c2nc(C(F)(F)F)cs2)c(-c2cncc(-c3noc(=O)[nH]3)c2)cn1` [Example 19, 1-Ethyl-3-(5′-(5-oxo-4,5-dihydro-1,2,4-oxadiazol-3-yl)-4-(4-(trifluoromethyl)thiazol-2-yl)-3,3′-bipyridin-6-yl)urea] the inhibition at 1 µM was 110%.
